Some test systems named below: SK-OV-3 ovarian; OVCAR-5 ovarian; LOX IMVI melanoma; A549 NSCLC; SK-MEL-2 melanoma; SF-268 CNS; NCI/ADR-RES ovarian; HOP-62 NSCLC; MCF7 breast; SR leukemia.
What all share (experiment): inhibition of tumour cell growth, NCI panel, 48 h

Among the data in PubChem BioAssay (NCI) are GI50 and TGI values, retold here.

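Results reflect a 48-hour exposure of cells in 96-well plates to compound at five concentrations. The concentration for 50% growth inhibition is given as GI50. TGI marks complete inhibition of growth.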 Bounds are passed on as bounds.

As to `CCOC(=O)c1cnc(SCc2ccc(Cl)c(Cl)c2)nc1N1CC1`, the GI50 in the experiment with SK-OV-3 ovarian is 2.85 µM; with OVCAR-5 ovarian, 4.67 µM; with LOX IMVI melanoma, 1 µM; with A549 NSCLC, 3.72 µM; in the experiment with SK-MEL-2 melanoma, 3.26 µM; with SF-268 CNS it was 3.05 µM. Further, the GI50 was 2.91 µM in the experiment on NCI/ADR-RES ovarian, 2.95 µM with HOP-62 NSCLC and 1.27 µM in the experiment with MCF7 breast. The TGI in the experiment with SK-OV-3 ovarian came out at 10.4 µM; with OVCAR-5 ovarian, 19.4 µM; in the experiment with LOX IMVI melanoma, 5.73 µM; with A549 NSCLC, 16.1 µM; in the experiment on SK-MEL-2 melanoma, 11.1 µM; with SF-268 CNS, 12.2 µM. Also, the TGI with NCI/ADR-RES ovarian turned out to be 8.72 µM; with HOP-62 NSCLC, 13.6 µM; with MCF7 breast, 11.4 µM.

As to `O=[N+]([O-])c1ccc(N/N=C\c2cc(Cl)ccc2O)nc1`, the GI50 in the experiment with SK-OV-3 ovarian was 4.25 µM; in the experiment on OVCAR-5 ovarian it was 8.88 µM; with LOX IMVI melanoma it was 0.457 µM; with A549 NSCLC, 2.79 µM; in the experiment with SK-MEL-2 melanoma, 3.24 µM; in the experiment with SF-268 CNS it was 0.595 µM. Also, the figures for the GI50 with NCI/ADR-RES ovarian, with HOP-62 NSCLC and with MCF7 breast were 0.388 µM, 1.96 µM and 2.73 µM, respectively. For the same compound, the TGI with SK-OV-3 ovarian is 37.3 µM; in the experiment with OVCAR-5 ovarian, over 100 µM; with LOX IMVI melanoma, 8.47 µM; with A549 NSCLC it was 16.1 µM; in the experiment with SK-MEL-2 melanoma, 29.4 µM; with SF-268 CNS, 22.9 µM. In addition, the TGI in the experiment with NCI/ADR-RES ovarian was 8.32 µM; in the experiment with HOP-62 NSCLC, 11.9 µM; in the experiment on MCF7 breast, over 100 µM.

As for `C1=CN2C[n+]3cccc(OCc4ccccc4)c3N=C2C(OCc2ccccc2)=C1`, the TGI with SK-OV-3 ovarian was over 100 µM; in the experiment on OVCAR-5 ovarian, over 100 µM; with LOX IMVI melanoma, 86 µM; in the experiment with A549 NSCLC, over 100 µM; with SK-MEL-2 melanoma it was 33.3 µM; in the experiment on SF-268 CNS it was over 100 µM. Further, the TGI in the experiment on NCI/ADR-RES ovarian, with HOP-62 NSCLC and in the experiment on MCF7 breast was over 100 µM each time.

Regarding `COC(=O)Nc1nc2ccc(C(=O)c3ccc[nH]3)cc2[nH]1`, the TGI in the experiment on SK-OV-3 ovarian is over 63 µM; in the experiment on OVCAR-5 ovarian, over 100 µM; in the experiment with LOX IMVI melanoma, over 100 µM; with A549 NSCLC, over 100 µM; with SK-MEL-2 melanoma, over 100 µM; with SF-268 CNS, over 100 µM. For the same compound, the TGI in the experiment on NCI/ADR-RES ovarian is 9.01 µM; with HOP-62 NSCLC, over 95.9 µM; with MCF7 breast, over 100 µM.

As to `Cc1ccc(-c2c(C#N)c(N)nc(N3CCOCC3)c2C#N)o1`, the GI50 with OVCAR-5 ovarian is 27.4 µM; with A549 NSCLC it was 57.1 µM; in the experiment with SK-MEL-2 melanoma it was 78.8 µM; with SF-268 CNS it was over 100 µM; in the experiment on NCI/ADR-RES ovarian, 33.6 µM; in the experiment with HOP-62 NSCLC it was 26.4 µM. Further, the GI50 with MCF7 breast is 64.9 µM. Besides, the TGI in the experiment on OVCAR-5 ovarian, in the experiment with A549 NSCLC, in the experiment on SK-MEL-2 melanoma, with SF-268 CNS, in the experiment with NCI/ADR-RES ovarian and in the experiment on HOP-62 NSCLC was over 100 µM in each case. In the experiment with MCF7 breast, this compound had a TGI of over 100 µM.

`Cc1ccc2c(c1)NC(c1ccc(C(=O)O)cc1)c1cccn1-2` (stereo not given): the TGI in the experiment with SK-OV-3 ovarian was 51.8 µM; in the experiment on OVCAR-5 ovarian, over 100 µM; in the experiment with LOX IMVI melanoma, over 100 µM; with A549 NSCLC, over 100 µM; in the experiment on SK-MEL-2 melanoma, over 100 µM; in the experiment with SR leukemia it was over 100 µM. Further, the results for the TGI in the experiment with HOP-62 NSCLC and with MCF7 breast were 58.6 µM and over 100 µM, respectively.

For the compound `O=C1/C(=C\c2ccc(Cl)cc2)CN(C(=S)Nc2ccccc2)C/C1=C\c1ccc(Cl)cc1`, the GI50 in the experiment with SK-OV-3 ovarian was 2.03 µM; with OVCAR-5 ovarian, 1.47 µM; in the experiment on LOX IMVI melanoma, 0.203 µM; with A549 NSCLC, 0.415 µM; in the experiment with SK-MEL-2 melanoma, 2.57 µM; in the experiment on SF-268 CNS, 0.754 µM. The GI50 is 2.54 µM with NCI/ADR-RES ovarian, 0.269 µM in the experiment on HOP-62 NSCLC and 0.292 µM in the experiment on MCF7 breast. For the same compound, the TGI in the experiment with SK-OV-3 ovarian worked out at 4.86 µM; in the experiment with OVCAR-5 ovarian it was 3.49 µM; in the experiment with LOX IMVI melanoma, 0.432 µM; in the experiment with A549 NSCLC it was 10.3 µM; in the experiment on SK-MEL-2 melanoma, 5.8 µM; in the experiment with SF-268 CNS, 2.26 µM. For the same compound, the TGI with NCI/ADR-RES ovarian worked out at 18.4 µM; in the experiment with HOP-62 NSCLC it was 0.696 µM; with MCF7 breast, 1.15 µM.

As for `CC12OC(C(=O)C13CC3)C1C(=O)c3ccccc3C(=O)C12` (stereo not given), the GI50 was 25.3 µM with SK-OV-3 ovarian; 47.4 µM in the experiment with OVCAR-5 ovarian; 37.2 µM in the experiment with A549 NSCLC; 47.1 µM in the experiment on SK-MEL-2 melanoma; 19.2 µM in the experiment on SF-268 CNS; 24.5 µM in the experiment on NCI/ADR-RES ovarian. The GI50 in the experiment on HOP-62 NSCLC is 27.8 µM; with MCF7 breast it was 21.2 µM. The TGI with SK-OV-3 ovarian was 74.8 µM; with OVCAR-5 ovarian, over 100 µM; in the experiment on A549 NSCLC, over 100 µM; with SK-MEL-2 melanoma it was over 100 µM; in the experiment on SF-268 CNS, 46.2 µM; in the experiment on NCI/ADR-RES ovarian it was 77 µM. The TGI in the experiment with HOP-62 NSCLC is 80 µM; in the experiment with MCF7 breast, 78.6 µM.
